According to ChEMBL document CHEMBL1136236, “Design and parallel synthesis of piperidine libraries targeting the nociceptin (N/OFQ) receptor” (Bioorg Med Chem Lett, 2003):
Calls of active or inactive are those of the source. The calls are words filed in the database; no cut-off is given here.

Columns and labels:
Nociceptin receptor [1] = target: T1, Nociceptin receptor (Homo sapiens, UniProt P41146); experiment: Inhibitory activity against human orphanin FQ receptor expressed in recombinant HEK 293 cells; assay type: cell-based; parameters: concentration or dose not given beside the values; conditions: HEK293; concentration not given here
T1 sequence (P41146 whole entry): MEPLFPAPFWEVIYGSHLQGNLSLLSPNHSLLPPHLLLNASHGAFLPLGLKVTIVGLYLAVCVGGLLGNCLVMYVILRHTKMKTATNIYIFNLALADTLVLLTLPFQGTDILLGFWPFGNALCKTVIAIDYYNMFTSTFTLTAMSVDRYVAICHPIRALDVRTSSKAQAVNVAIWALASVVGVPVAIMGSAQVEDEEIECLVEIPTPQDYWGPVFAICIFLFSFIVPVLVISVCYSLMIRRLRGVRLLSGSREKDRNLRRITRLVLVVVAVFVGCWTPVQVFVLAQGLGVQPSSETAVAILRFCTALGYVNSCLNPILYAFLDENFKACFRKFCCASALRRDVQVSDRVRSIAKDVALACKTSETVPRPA

Nociceptin receptor [2] = target: T1, Nociceptin receptor; experiment: Binding affinity against human orphanin FQ receptor expressed in recombinant HEK 293 cells; assay type: cell-based, HEK293
Mu-type opioid receptor [3] = target: T2, Mu-type opioid receptor (Homo sapiens, UniProt P35372); experiment: Selectivity ratio of Opioid receptor mu 1 binding to Orphanin FQ receptor
T2 sequence (P35372 whole entry): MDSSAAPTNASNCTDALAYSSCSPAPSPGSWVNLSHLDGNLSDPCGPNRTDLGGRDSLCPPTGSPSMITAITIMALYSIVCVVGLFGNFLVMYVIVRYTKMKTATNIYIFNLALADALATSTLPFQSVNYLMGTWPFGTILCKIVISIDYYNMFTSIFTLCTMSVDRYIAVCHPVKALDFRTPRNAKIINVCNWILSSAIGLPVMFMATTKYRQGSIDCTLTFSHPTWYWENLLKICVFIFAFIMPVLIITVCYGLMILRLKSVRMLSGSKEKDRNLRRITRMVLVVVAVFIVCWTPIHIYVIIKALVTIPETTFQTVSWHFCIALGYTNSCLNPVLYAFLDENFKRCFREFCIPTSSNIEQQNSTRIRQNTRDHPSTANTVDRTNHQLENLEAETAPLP

Nociceptin receptor [4] = target: T1, Nociceptin receptor; experiment: Antagonistic activity against orphan FQ receptor; assay type: functional
Mu-type opioid receptor [5] = target: T2, Mu-type opioid receptor; experiment: Antagonistic activity against opioid receptor mu1; assay type: functional
[6] = target: T3, Kappa-type opioid receptor (Homo sapiens, UniProt P41145); experiment: Antagonistic activity against opioid receptor kappa 1; assay type: functional
T3 sequence (P41145 whole entry): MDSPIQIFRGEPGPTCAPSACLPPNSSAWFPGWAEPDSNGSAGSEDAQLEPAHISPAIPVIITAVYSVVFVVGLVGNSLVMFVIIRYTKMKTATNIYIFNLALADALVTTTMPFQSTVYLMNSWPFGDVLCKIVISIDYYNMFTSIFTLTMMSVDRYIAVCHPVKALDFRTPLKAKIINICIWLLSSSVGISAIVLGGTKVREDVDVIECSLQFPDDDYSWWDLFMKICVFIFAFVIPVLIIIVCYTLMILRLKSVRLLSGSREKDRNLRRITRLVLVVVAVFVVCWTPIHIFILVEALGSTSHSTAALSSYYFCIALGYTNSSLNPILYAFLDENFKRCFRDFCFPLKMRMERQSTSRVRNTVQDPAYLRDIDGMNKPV

[7] = target: T4, Delta-type opioid receptor (Homo sapiens, UniProt P41143); experiment: Antagonistic activity against Opioid receptor delta 1; assay type: functional
T4 sequence (P41143 whole entry): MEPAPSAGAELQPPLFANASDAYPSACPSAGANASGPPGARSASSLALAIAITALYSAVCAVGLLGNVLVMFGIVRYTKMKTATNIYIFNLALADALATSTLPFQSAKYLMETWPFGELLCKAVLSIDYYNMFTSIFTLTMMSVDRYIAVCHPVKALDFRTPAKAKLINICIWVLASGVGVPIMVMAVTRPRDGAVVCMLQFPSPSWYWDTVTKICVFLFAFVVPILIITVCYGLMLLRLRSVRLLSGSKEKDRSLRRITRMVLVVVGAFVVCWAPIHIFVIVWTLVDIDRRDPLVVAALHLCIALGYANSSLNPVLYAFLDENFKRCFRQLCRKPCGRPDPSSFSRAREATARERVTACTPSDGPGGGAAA

[8] = target: T3, Kappa-type opioid receptor; experiment: Antagonistic activity against opioid receptor kappa 1; not active; assay type: functional
Nociceptin receptor [9] = target: T1, Nociceptin receptor; experiment: Inhibitory activity against human orphanin FQ receptor expressed in recombinant HEK 293 cells; inactive; assay type: cell-based; conditions: HEK293
[10] = target: T4, Delta-type opioid receptor; experiment: Antagonistic activity against Opioid receptor delta 1; not active; assay type: functional
Nociceptin receptor [11] = target: T1, Nociceptin receptor; experiment: Inhibitory activity against human orphanin FQ receptor expressed in recombinant HEK 293 cells; in active; assay type: cell-based; conditions: HEK293

SMILES | inhibition (Nociceptin receptor [1]) [%] | Ki (Nociceptin receptor [2]) [nM] | Selectivity ratio (Mu-type opioid receptor [3]) | Ki (Nociceptin receptor [4]) [nM] | Ki (Mu-type opioid receptor [5]) [nM] | further results
OC1(c2ccc(Cl)c(C(F)(F)F)c2)CCN(Cc2ccc3ccccc3c2)CC1 | 70 | 879 |  |  |  | 
OC1(c2ccc(Cl)c(C(F)(F)F)c2)CCN(CC2CCCCCCC2)CC1 |  |  | 2.64 | 47 | 124 | Ki [6]: 1650 nM; Ki [7]: 8780 nM
OC1(c2ccc(Cl)c(C(F)(F)F)c2)CCN(Cc2ccc(C(F)(F)F)cc2)CC1 | 55 | 1190 |  |  |  | 
OC1(c2cccc(C(F)(F)F)c2)CCN(Cc2ccc3ccccc3c2)CC1 | 85 | 715 |  |  |  | 
CC(C)C1CCC(N2CCC(O)(c3ccc(Cl)c(C(F)(F)F)c3)CC2)CC1 (configuration not stated) |  |  | 0.24 | 33 | 8 | Ki [8]: Not Active; Ki [7]: 10000 nM
OC1(c2cccc(C(F)(F)F)c2)CCN(C2CCC3CCCCC3C2)CC1 (configuration not stated) |  |  | 1.75 | 12 | 21 | Ki [8]: Not Active; Ki [7]: 10000 nM
OC1(c2ccc(Cl)c(C(F)(F)F)c2)CCN(Cc2ccc(F)cc2)CC1 | 90 | 234 |  |  |  | 
Cc1ccc2ccccc2c1CN1CCC(C#N)(c2ccccc2)CC1 |  | > 10000 |  |  |  | inhibition (Nociceptin receptor [9]): inactive
OC1(c2ccc(Cl)c(C(F)(F)F)c2)CCN(C2Cc3ccccc3C2)CC1 |  |  | 0.23 | 82 | 19 | Ki [8]: Not Active; Ki [7]: 10000 nM
OC1(c2cccc(C(F)(F)F)c2)CCN(CC2CCCCCCC2)CC1 |  |  | 1.11 | 102 | 113 | Ki [10]: Not Active; Ki [6]: 4240 nM
O=[N+]([O-])c1ccc(CN2CCC(O)(c3ccc(Cl)c(C(F)(F)F)c3)CC2)o1 |  | > 10000 |  |  |  | inhibition (Nociceptin receptor [9]): inactive
OC1(c2ccc(Cl)cc2)CCN(CC2CCCCCCC2)CC1 |  |  | 1.25 | 502 | 626 | Ki [10]: Not Active; Ki [8]: Not Active
N#CC1(c2ccccc2)CCN(Cc2ccc(Cl)c(Cl)c2)CC1 | 65 | 1270 |  |  |  | 
O=C(COCc1ccccc1)N1CCC(O)(c2ccc(Br)cc2)CC1 | 50 | > 10000 |  |  |  | 
CCCC1CCC(N2CCC(O)(c3cccc(C(F)(F)F)c3)CC2)CC1 (configuration not stated) |  |  | 0.34 | 135 | 46 | Ki [10]: Not Active; Ki [6]: 6000 nM
OC1(c2ccc(Cl)cc2)CCN(Cc2ccc(C(F)(F)F)cc2)CC1 | 85 | 307 |  |  |  | 
OC1(c2ccc(Cl)cc2)CCN(Cc2ccc3ccccc3c2)CC1 | 90 | 153 |  |  |  | 
OC1(c2ccc(Cl)c(C(F)(F)F)c2)CCN(CCC(c2ccccc2)c2ccccc2)CC1 |  |  | 0.02 | 225 | 4 | Ki [10]: Not Active; Ki [8]: Not Active
N#CC1(c2ccccc2)CCN(Cc2ccc(F)cc2)CC1 | 55 | > 10000 |  |  |  | 
N#CC1(c2ccccc2)CCN(Cc2ccc3ccccc3c2)CC1 | 70 | 1110 |  |  |  | 
OC1(c2cccc(C(F)(F)F)c2)CCN(Cc2ccc(C(F)(F)F)cc2)CC1 |  | 6520 |  |  |  | 
OC1(c2cccc(C(F)(F)F)c2)CCN(Cc2ccc(F)cc2)CC1 | 80 | 692 |  |  |  | 
N#CC1(c2ccccc2)CCN(Cc2cccc3ccccc23)CC1 | 55 | 827 |  |  |  | 
OC1(c2cccc(C(F)(F)F)c2)CCN(CCC(c2ccccc2)c2ccccc2)CC1 |  |  | 0.01 | 116 | 1 | Ki [8]: Not Active; Ki [7]: 9390 nM
CC(C)C1CCC(N2CCC(O)(c3cccc(C(F)(F)F)c3)CC2)CC1 (configuration not stated) |  |  |  |  |  | Ki [6]: 4150 nM
N#Cc1ccc(CN2CCC(O)(c3ccc(Cl)c(C(F)(F)F)c3)CC2)cc1 |  | > 10000 |  |  |  | inhibition (Nociceptin receptor [11]): inactive
